“Also recorded” adds a separate entry of the source.
Key:
[1] = test system: DMBA-induced mammary tumors; settings: cited from earlier work
[2] = test system: LNCaP prostate cancer cells; assay: Flow cytometric screen for sensitization to TRAIL-induced apoptosis (nuclear fragmentation by propidium iodide, mitochondrial depolarization by TMRM); format: cell-based
Method: (§1) Flow cytometric analysis of apoptosis with HTS platform was performed on cells that were plated on a 96-well plate as triplicate samples. After 24 hours in androgen-deprived conditions, the cells were pretreated with 40 μM lignans or lignan derivatives for 1 hour prior to addition of 10 ng/ml izTRAIL. Twenty hours later the plate was centrifuged with a culture plate rotor (1000 rpm, 3 minutes). For analysis of nuclear fragmentation, propidium iodide (PI) buffer (40 mM Na-citrate, 0.3% Triton X-100, 50 μg/ml PI; Sigma) was added to the wells. After 10 minutes incubation at room temperature, the plate was analyzed with LSRII flow cytometer equipped with HTS platform (PE-A channel). The fraction of sub-G0/G1 events (nuclear fragmentation) was gated as a measure of apoptotic cell death. For detection of mitochondrial depolarization, the cells were detached by trypsinization of the cells and incubated in 20 nM tetramethylrhodamine (TMRM; Invitrogen) in warm culture medium for 10 minutes before analysis. The plate was analyzed with LSRII flow cytometer equipped with HTS platform (FSC, PE-A channel). The cells with decreased TMRM incorporation were considered to have undergone mitochondrial membrane depolarization. Activated caspase-3 in cells was labeled with phycerythrin (PE)-conjugated antibody according to manufacturer's protocol (BD Pharmingen) and analyzed by FacsCalibur flow cytometer (FL-2, FSC).
LNCaP cells were cultured in the absence of 1 nM androgen and incubated with lignan compounds (40 μM) for 1 hour before izTRAIL treatment (10 ng/ml) or control for 20 hours. The samples were screened for nuclear fragmentation by propidium iodide labeling (FIG. 1A) or mitochondrial depolarization by TMRM labeling (FIG. 1B). The plates were analyzed with LSRII flow cytometer equipped with HTS platform (FSC, PE-A channels). The fraction of sub-G0/G1 events (nuclear fragmentation; PE-A channel) was gated as a measure of apoptotic cell death (FIG. 1A) and the cells with decreased TMRM incorporation (PE-A channel) were considered to have undergone mitochondrial membrane depolarization (FIG. 1B). Representative histograms and dot blots for control, TRAIL, nortrachelogenin (NTG) and NTG+TRAIL treatments are viewed.
Importantly, substitution with methyl group at position 8 further increases activity of dibenzylbutyrolactone lignans in sensitization of LNCaP prostate cancer cells to TRAIL-mediated apoptosis (FIG. 8). LNCaP cells were cultured in the absence of 1 nM androgen and incubated with indicated lignan compounds (40 μM) for 1 hour before izTRAIL treatment (10 ng/ml) or control for 20 hours. The cells were disrupted and the nuclei labeled for DNA content with propidium iodide. The samples were analyzed by flow cytometry and the fraction of sub-G0/G1 events (nuclear fragmentation) was detected as a measure of apoptotic cell death (mean±SEM; n=4). (FIG. 8A). Alternatively, LNCaP cells (+/−1 nM androgen) were incubated with 0-100 μM 8-Me-MAT for 1 hour after which total cell lysates were prepared and the samples were analyzed by Western blotting for Akt and phospho-Akt(ser473) expression.

[3] = cited from earlier work
LNCaP cells = assay: Caspase-3 activation by flow cytometry, TRAIL with or without NTG; format: cell-based; settings: for percentage of cells with activated caspase-3 (maximum): combination of 40 μM NTG and TRAIL, 20 h
Method: as §1
As NTG was identified as the most efficient TRAIL-sensitizing lignan, we analyzed the ability of NTG to affect the efficacy of different TRAIL concentrations in triggering of caspase-3 activation (FIG. 2A). The TRAIL resistant LNCaP cells were cultured in androgen-supplied and androgen-deprived conditions to simulate the effects of androgen-deprivation therapy, and treated for 20 h with TRAIL alone or with the combination of 40 μM NTG and TRAIL. The percentage of cells with activated caspase-3 increased from maximum of 15% to 60% for androgen-deprived, and from 13% to 30% for androgen-supplied cells (Mean±SEM; n≧3) (FIG. 2A).

In the case of COc1cc(CC2COC(=O)C2(O)Cc2ccc(O)c(OC)c2)ccc1O (stereo not shown) [NTG, Nortrachelogenin], the “growth of DMBA-induced mammary tumors” value ([1]; during promotion and early progression) is listed as “did not inhibit the growth of DMBA-induced mammary tumors”, the endocrine-modulatory effects ([1]; long-term experiments) is listed as “weak endocrine-modulatory effects” and the “capacity to sensitize LNCaP prostate cancer cells to TRAIL-induced apoptosis” value ([2]; androgen-deprived, 40 μM lignan 1 hour before 10 ng/ml izTRAIL, 20 hours) is listed as “highest capacity of the tested lignan compounds; also recorded: most efficient of the 27 tested lignan compounds; also recorded: clearly enhances the activity”. The “increase of the apoptotic response compared to TRAIL alone (factor)” value ([2]; lignan in combination with TRAIL) was 3.2, the “conversion into the mammalian lignans” value ([3]; in vivo) was “not known to be converted into the mammalian lignans, ENL or END” and the absorption and excretion ([3]; urine) was “absorbed and excreted in urine as such”. The “sensitizing effect when medium change directly precedes TRAIL receptor activation” value (LNCaP cells; 1 hour pretreatment with 40 μM NTG, culture medium replaced before TRAIL, androgen-deprived and androgen-supplied) was “completely abolished”, the “effect of increasing the NTG dose on sensitization to TRAIL” value (LNCaP cells; NTG 40 μM to 100 μM, 10 ng/ml TRAIL) was “did not induce further sensitization” and the “percentage of cells with activated caspase-3 (maximum)” value (LNCaP cells; androgen-deprived LNCaP) was 60%. For the same compound, the “percentage of cells with activated caspase-3 (maximum)” value (LNCaP cells; androgen-supplied LNCaP) was 30%.

— patent US9168243B2, “Pharmaceutical compositions comprising 8-substituted dibenzylbutyrolactone lignans” (priority 2010, dated 2015)
